Here are results for 32 compounds from patent US9695178B2, “6-(2-pyridyl)-7,8-dihydro-5H-pyrido[4,3-D]pyrimidine analogs as hedgehog pathway signaling inhibitors and therapeutic applications thereof” (Suzhou Yunxuan Yiyao Keji Youxian Gongsi, priority 2013, dated 2017).

pIC50: −log10 of the molar value.

Chain of Smo (Q99835 28-787): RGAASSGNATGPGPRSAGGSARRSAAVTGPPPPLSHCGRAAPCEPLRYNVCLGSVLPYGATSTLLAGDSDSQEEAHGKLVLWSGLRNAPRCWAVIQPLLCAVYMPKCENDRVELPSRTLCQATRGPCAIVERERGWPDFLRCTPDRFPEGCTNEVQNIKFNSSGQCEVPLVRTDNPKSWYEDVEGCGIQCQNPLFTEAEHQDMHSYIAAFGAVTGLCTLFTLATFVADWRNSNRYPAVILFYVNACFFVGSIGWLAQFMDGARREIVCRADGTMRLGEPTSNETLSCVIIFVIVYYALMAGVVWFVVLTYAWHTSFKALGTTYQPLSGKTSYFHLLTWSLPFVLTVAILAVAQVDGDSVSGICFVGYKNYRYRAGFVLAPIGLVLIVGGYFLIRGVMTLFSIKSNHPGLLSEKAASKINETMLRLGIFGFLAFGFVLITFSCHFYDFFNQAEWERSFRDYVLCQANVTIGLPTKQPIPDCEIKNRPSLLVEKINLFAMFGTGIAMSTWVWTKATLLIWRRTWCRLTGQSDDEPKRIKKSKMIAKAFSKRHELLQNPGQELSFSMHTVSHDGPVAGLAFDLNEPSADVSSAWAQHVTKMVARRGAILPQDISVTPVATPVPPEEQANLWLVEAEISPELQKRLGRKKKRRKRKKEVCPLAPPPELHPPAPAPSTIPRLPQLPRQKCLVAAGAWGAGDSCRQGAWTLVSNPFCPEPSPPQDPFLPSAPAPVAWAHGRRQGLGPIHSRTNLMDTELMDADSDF

One assay has as its target Smo (Homo sapiens, UniProt Q99835). Kind of assay: Bodipy-Cyclopamine Binding Assay (confirmation assay), Hek293-SMO cells.
Settings: not given
The term pIC50 denotes the negative decadic logarithm of the IC50, by convention in mol/L. As to `CCOc1nc2c(s1)CN(c1cc(-c3ncc(C)cc3C)c(Cl)cn1)CC2` [Compound A46, 5-(5′-chloro-3,5-dimethyl-2,4′-bipyridin-2′-yl)-2-ethoxy-4,5,6,7-tetrahydro-thiazolo-[5,4-c]pyridine], the negative logarithm of the IC50 (pIC50) was 6.80. As for `Cc1cnc(-c2cc(N3CCc4nc(NC5CC5)ncc4C3=O)ncc2Cl)c(C)c1` [Compound A99, 6-(5′-chloro-3,5-dimethyl-2,4′-bipyridin-2′-yl)-2-(cyclopropyl-amino)-7,8-dihydro-pyrido[4,3-d]pyrimidin-5(6H)-one], the pIC50 is 7.61. Same read-out and setting: with `CCOC(=O)c1cn2c(n1)CN(c1cc(-c3ncc(C)cc3C)c(Cl)cn1)CC2` [Compound A-1, ethyl 7-(5′-chloro-3,5-dimethyl-2,4′-bipyridin-2′-yl)-5,6,7,8-tetrahydro-imidazo-[1,2-a]pyrazine-2-carboxylate] the figure was 6.49; with `Cc1cnc(-c2cc(N3CCn4cc(C(=O)O)nc4C3)ncc2Cl)c(C)c1` [Compound A-2, 7-(5′-chloro-3,5-dimethyl-2,4′-bipyridin-2′-yl)-5,6,7,8-tetrahydro-imidazo-[1,2-a]pyrazine-2-carboxylic acid], less than 5.00. On the same count and under the same terms, for `Cc1cnc(-c2cc(N3CCn4cc(C(=O)N5CCCC5)nc4C3)ncc2Cl)c(C)c1` [Compound A-3, (7-(5′-chloro-3,5-dimethyl-2,4′-bipyridin-2′-yl)-5,6,7,8-tetrahydroimidazo[1,2-a]pyrazin-2-yl)(pyrrolidin-1-yl)methanone] the value was 6.61; for `Cc1cnc(-c2cc(N3CCn4cc(C(=O)N5CCC(O)CC5)nc4C3)ncc2Cl)c(C)c1` [Compound A-4, (7-(5′-chloro-3,5-dimethyl-2,4′-bipyridin-2′-yl)-5,6,7,8-tetrahydro-imidazo-[1,2-a]pyrazin-2-yl)(4-hydroxy-piperidin-1-yl)methanone], 6.19. `Cc1cnc(-c2cc(N3CCn4cc(C(=O)N5CCOCC5)nc4C3)ncc2Cl)c(C)c1` [Compound A-5, (7-(5′-chloro-3,5-dimethyl-2,4′-bipyridin-2′-yl)-5,6,7,8-tetrahydro-imidazo-[1,2-a]pyrazin-2-yl)(morpholino) methanone] gave a negative logarithm of the IC50 (pIC50) of 5.94.

On to `CNC(=O)c1cn2c(n1)CN(c1cc(-c3ncc(C)cc3C)c(Cl)cn1)CC2` [Compound A-6, 7-(5′-chloro-3,5-dimethyl-2,4′-bipyridin-2′-yl)-N-methyl-5,6,7,8-tetrahydro-imidazo-[1,2-a]pyrazine-2-carboxamide], for which the pIC50 is 5.90. Compound `Cc1cnc(-c2cc(N3CCn4cc(C(=O)N5CC(C)NC(C)C5)nc4C3)ncc2Cl)c(C)c1` (centres unmarked) [Compound A-7, (7-(5′-chloro-3,5-dimethyl-2,4′-bipyridin-2′-yl)-5,6,7,8-tetrahydro-imidazo-[1,2-a]pyrazin-2-yl)(3,5-dimethyl-piperazin-1-yl)methanone] showed a pIC50 of 6.18. Same read-out and setting: with `Cc1cnc(-c2cc(N3CCn4cc(C(=O)N(C)CCO)nc4C3)ncc2Cl)c(C)c1` [Compound A-8, 7-(5′-chloro-3,5-dimethyl-2,4′-bipyridin-2′-yl)-N-(2-hydroxyethyl)-N-methyl-5,6,7,8-tetrahydro-imidazo-[1,2-a]pyrazine-2-carboxamide] the figure was 5.70; with `Cc1cnc(-c2cc(N3CCn4cc(CN5CCOCC5)nc4C3)ncc2Cl)c(C)c1` [Compound A-11, 4-((7-(5′-chloro-3,5-dimethyl-2,4′-bipyridin-2′-yl)-5,6,7,8-tetrahydroimidazo[1,2-a]pyrazin-2-yl)methyl)morpholine], 6.17. The same measure, in the same setting: for `Cc1cnc(-c2cc(N3CCn4cc(NC(=O)C(F)(F)F)nc4C3)ncc2Cl)c(C)c1` [Compound A-12, N-(7-(5′-chloro-3,5-dimethyl-2,4′-bipyridin-2′-yl)-5,6,7,8-tetrahydro-imidazo-[1,2-a]pyrazin-2-yl)-2,2,2-trifluoro-acetamide] the value was less than 6.00; for `CCC(=O)Nc1cn2c(n1)CN(c1cc(-c3ncc(C)cc3C)c(Cl)cn1)CC2` [Compound A-13, N-(7-(5′-chloro-3,5-dimethyl-2,4′-bipyridin-2′-yl)-5,6,7,8-tetrahydroimidazo[1,2-a]pyrazin-2-yl)propionamide], less than 6.00; for `COCC(=O)Nc1cn2c(n1)CN(c1cc(-c3ncc(C)cc3C)c(Cl)cn1)CC2` [Compound A-14, N-(7-(5′-chloro-3,5-dimethyl-2,4′-bipyridin-2′-yl)-5,6,7,8-tetrahydro-imidazo-[1,2-a]pyrazin-2-yl)-2-methoxy-acetamide], less than 6.00.

In turn, `Cc1cnc(-c2cc(N3CCn4cc(C(=O)OC(C)C)nc4C3)ncc2Cl)c(C)c1` [Compound A-15, isopropyl 7-(5′-chloro-3,5-dimethyl-2,4′-bipyridin-2′-yl)-5,6,7,8-tetrahydro-imidazo-[1,2-a]pyrazine-2-carboxylate] had a pIC50 of 6.23. As for `Cc1cnc(-c2cc(N3CCn4cc(C(=O)OC5CCCC5)nc4C3)ncc2Cl)c(C)c1` [Compound A-17, cyclopentyl 7-(5′-chloro-3,5-dimethyl-2,4′-bipyridin-2′-yl)-5,6,7,8-tetrahydro-imidazo-[1,2-a]pyrazine-2-carboxylate], the negative-log IC50 (pIC50) is less than 6.00. `Cc1cnc(-c2cc(N3CCn4cc(C(=O)Oc5ccccc5)nc4C3)ncc2Cl)c(C)c1` [Compound A-18, phenyl 7-(5′-chloro-3,5-dimethyl-2,4′-bipyridin-2′-yl)-5,6,7,8-tetrahydro-imidazo-[1,2-a]pyrazine-2-carboxylate]: the pIC50 is less than 6.00. Still for that read-out and setting: with `Cc1cnc(-c2cc(N3CCn4cc(C(=O)Nc5ccccc5F)nc4C3)ncc2Cl)c(C)c1` [Compound A-20, 7-(5′-chloro-3,5-dimethyl-2,4′-bipyridin-2′-yl)-N-(2-fluorophenyl)-5,6,7,8-tetrahydro-imidazo-[1,2-a]pyrazine-2-carboxamide] the figure was 6.29; with `Cc1cnc(-c2cc(N3CCn4cc(C(=O)Nc5ccc(F)cc5)nc4C3)ncc2Cl)c(C)c1` [Compound A-21, 7-(5′-chloro-3,5-dimethyl-2,4′-bipyridin-2′-yl)-N-(4-fluorophenyl)-5,6,7,8-tetrahydro-imidazo-[1,2-a]pyrazine-2-carboxamide], less than 6.00. Compound `Cc1cnc(-c2cc(N3CCc4nc(N)sc4C3)ncc2Cl)c(C)c1` [Compound A-22, 5-(5′-chloro-3,5-dimethyl-2,4′-bipyridin-2′-yl)-4,5,6,7-tetrahydro-thiazolo-[5,4-c]pyridin-2-amine] had a pIC50 of 6.11. The compound `CC(=O)Nc1nc2c(s1)CN(c1cc(-c3ncc(C)cc3C)c(Cl)cn1)CC2` [Compound A-23, N-(5-(5′-chloro-3,5-dimethyl-[2,4′-bipyridin]-2′-yl)-4,5,6,7-tetrahydrothiazolo[5,4-c]pyridin-2-yl)acetamide] had a negative logarithm of the IC50 (pIC50) of 6.44. In the case of `Cc1cnc(-c2cc(N3CCc4nc(NC(=O)C(C)C)sc4C3)ncc2Cl)c(C)c1` [Compound A-24, N-(5-(5′-chloro-3,5-dimethyl-2,4′-bipyridin-2′-yl)-4,5,6,7-tetrahydro-thiazolo-[5,4-c]pyridin-2-yl)isobutyr-amide], the pIC50 is 7.23.

In turn, `CCC(=O)Nc1nc2c(s1)CN(c1cc(-c3ncc(C)cc3C)c(Cl)cn1)CC2` [Compound A-25, N-(5-(5′-chloro-3,5-dimethyl-2,4′-bipyridin-2′-yl)-4,5,6,7-tetrahydro-thiazolo-[5,4-c]pyridin-2-yl)propion-amide] gave a pIC50 of 7.00.

In turn, `Cc1cnc(-c2cc(N3CCc4nc(NC(=O)C5CC5)sc4C3)ncc2Cl)c(C)c1` [Compound A-26, N-(5-(5′-chloro-3,5-dimethyl-2,4′-bipyridin-2′-yl)-4,5,6,7-tetrahydro-thiazolo-[5,4-c]pyridin-2-yl)cyclo-propane carboxamide] gave a pIC50 of 7.15. On to `COCC(=O)Nc1nc2c(s1)CN(c1cc(-c3ncc(C)cc3C)c(Cl)cn1)CC2` [Compound A-27, N-(5-(5′-chloro-3,5-dimethyl-2,4′-bipyridin-2′-yl)-4,5,6,7-tetrahydro-thiazolo-[5,4-c]pyridin-2-yl)-2-methoxy-acetamide], for which the negative-log IC50 (pIC50) was 6.37. Still for that read-out and setting: with `Cc1cnc(-c2cc(N3CCc4nc(NC(=O)C(C)(C)C)sc4C3)ncc2Cl)c(C)c1` [Compound A-28, N-(5-(5′-chloro-3,5-dimethyl-2,4′-bipyridin-2′-yl)-4,5,6,7-tetrahydro-thiazolo-[5,4-c]pyridin-2-yl)pivalamide] the figure was 6.90; with `Cc1cnc(-c2cc(N3CCc4nc(N5CCOCC5)sc4C3)ncc2Cl)c(C)c1` [Compound A-29, 4-(5-(5′-chloro-3,5-dimethyl-[2,4′-bipyridin]-2′-yl)-4,5,6,7-tetrahydrothiazolo[5,4-c]pyridin-2-yl)morpholine], 6.77; with `Cc1cnc(-c2cc(N3CCc4nc(N5CC(C)NC(C)C5)sc4C3)ncc2Cl)c(C)c1` (centres unmarked) [Compound A-30, 5-(5′-chloro-3,5-dimethyl-2,4′-bipyridin-2′-yl)-2-(3,5-dimethyl-piperazin-1-yl)-4,5,6,7-tetrahydro-thiazolo-[5,4-c]pyridine], 7.16.

Staying with this assay, now noted: Smo IC50 (nM), confirmation assay; competition with 100 nM bodipy-cyclopamine, Hek293-SMO cells.
What is called IC50 is the concentration that inhibits the measured activity by half. `Cc1cnc(-c2cc(N3CCn4cc(C(=O)OCC5CC5)nc4C3)ncc2Cl)c(C)c1` [Compound A16, cyclopro-pylmeth-yl 7-(5′-chloro-3,5-dimethyl-2,4′-bipyridin-2′-yl)-5,6,7,8-tetrahydro-imidazo-[1,2-a]pyrazine-2-carboxylate]: the concentration for half-maximal inhibition (IC50) amounted to 442 nM.

With `CCNC(=O)c1cn2c(n1)CN(c1cc(-c3ncc(C)cc3C)c(Cl)cn1)CC2` [Compound A-9, 7-(5′-chloro-3,5-dimethyl-2,4′-bipyridin-2′-yl)-N-ethyl-5,6,7,8-tetrahydro-imidazo-[1,2-a]pyrazine-2-carboxamide], the half-inhibitory concentration (IC50) is greater than 1000 nM. `Cc1cnc(-c2cc(N3CCn4cc(CO)nc4C3)ncc2Cl)c(C)c1` [Compound A-10, (7-(5′-chloro-3,5-dimethyl-2,4′-bipyridin-2′-yl)-5,6,7,8-tetrahydro-imidazo-[1,2-a]pyrazin-2-yl)methanol] displayed a concentration for half-maximal inhibition (IC50) greater than 1000 nM. The compound `Cc1cnc(-c2cc(N3CCn4cc(C(=O)Nc5ccccc5)nc4C3)ncc2Cl)c(C)c1` [Compound A-19, 7-(5′-chloro-3,5-dimethyl-2,4′-bipyridin-2′-yl)-N-phenyl-5,6,7,8-tetrahydro-imidazo-[1,2-a]pyrazine-2-carboxamide] registered a 50% inhibitory concentration (IC50) of 311 nM.
